The record followed here is patent publication US11306079B2, “3-(5-amino-pyrazin-2-yl)-benzenesulfonamide derivatives and related compounds as PI3K-gamma kinase inhibitors” (Incyte Corporation, priority 2017, dated 2022).

Assay [1] addresses PI3Kγ (p110γ) Recombinant Human Protein (Homo sapiens (Human), UniProt P48736). Nature of the assay: PI3K-γ Scintillation Proximity Assay. Particulars: 20 μM PIP2, 2 μM ATP, 13 nM PI3Kγ, 120 min, room temperature. The assay is classed as biochemical. The source says:
Example B. PI3K-γ Scintillation Proximity Assay
[γ-^33P]ATP (10 mCi/mL) and Wheat Germ Agglutinin (WGA) YSi SPA Scintillation Beads was purchased from Perkin-Elmer (Waltham, Mass.). Lipid kinase substrate, D-myo-Phosphatidylinositol 4,5-bisphosphate (PtdIns(4,5)P2)D (+)-sn-1,2-di-O-octanoylglyceryl, 3-O-phospho linked (PIP2), CAS 204858-53-7, was purchased from Echelon Biosciences (Salt Lake City, Utah). PI3Kγ (p110γ) Recombinant Human Protein was purchased from Life technology (Grand island, NY), ATP, MgCl2, DTT, EDTA, MOPS and CHAPS were purchased from Sigma-Aldrich (St. Louis, Mo.).
(§1) The kinase reaction was conducted in polystyrene 384-well Greiner Bio-one white plate from Thermo Fisher Scientific in a final volume of 25 μL. Inhibitors were first diluted serially in DMSO and added to the plate wells before the addition of other reaction components. The final concentration of DMSO in the assay was 2%. The PI3Kγ assay was carried out at room temperature in 20 mM MOPS, pH 6.7, 10 mM MgCl2, 5 mM DTT and CHAPS 0.03%. Reactions were initiated by the addition of ATP, the final reaction mixture consisted of 20 μM PIP2, 2 μM ATP, 0.5 μCi [γ-^33P] ATP, 13 nM PI3Kγ. Reactions were incubated for 120 min and terminated by the addition of 40 μL SPA beads suspended in quench buffer: 163 mM potassium phosphate pH 7.8, 20% glycerol, 25 mM EDTA. The final concentration of SPA beads is 1.0 mg/mL. After the plate sealing, plates were shaken overnight at room temperature and centrifuged at 1500 rpm for 10 min, the radioactivity of the product was determined by scintillation counting on Topcount (Perkin-Elmer). IC50 determination was performed by fitting the curve of percent of the solvent control activity versus the log of the inhibitor concentration using the GraphPad Prism 6.0 software.
(SPA uses beads or plates that emit light when radiolabelled molecules are held near them.)

The target of assay [2] is PI3Kδ (p110δ/p85α) Recombinant Human Protein (Homo sapiens (Human), UniProt O00329). Briefly: PI3Kδ Scintillation Proximity Assay. The assay is classed as biochemical. The settings on record: 20 μM PIP2, 2 μM ATP, 3.4 nM PI3Kδ, 120 min, room temperature.
Sequence of PI3Kδ (p110δ/p85α) Recombinant Human Protein (O00329 whole entry): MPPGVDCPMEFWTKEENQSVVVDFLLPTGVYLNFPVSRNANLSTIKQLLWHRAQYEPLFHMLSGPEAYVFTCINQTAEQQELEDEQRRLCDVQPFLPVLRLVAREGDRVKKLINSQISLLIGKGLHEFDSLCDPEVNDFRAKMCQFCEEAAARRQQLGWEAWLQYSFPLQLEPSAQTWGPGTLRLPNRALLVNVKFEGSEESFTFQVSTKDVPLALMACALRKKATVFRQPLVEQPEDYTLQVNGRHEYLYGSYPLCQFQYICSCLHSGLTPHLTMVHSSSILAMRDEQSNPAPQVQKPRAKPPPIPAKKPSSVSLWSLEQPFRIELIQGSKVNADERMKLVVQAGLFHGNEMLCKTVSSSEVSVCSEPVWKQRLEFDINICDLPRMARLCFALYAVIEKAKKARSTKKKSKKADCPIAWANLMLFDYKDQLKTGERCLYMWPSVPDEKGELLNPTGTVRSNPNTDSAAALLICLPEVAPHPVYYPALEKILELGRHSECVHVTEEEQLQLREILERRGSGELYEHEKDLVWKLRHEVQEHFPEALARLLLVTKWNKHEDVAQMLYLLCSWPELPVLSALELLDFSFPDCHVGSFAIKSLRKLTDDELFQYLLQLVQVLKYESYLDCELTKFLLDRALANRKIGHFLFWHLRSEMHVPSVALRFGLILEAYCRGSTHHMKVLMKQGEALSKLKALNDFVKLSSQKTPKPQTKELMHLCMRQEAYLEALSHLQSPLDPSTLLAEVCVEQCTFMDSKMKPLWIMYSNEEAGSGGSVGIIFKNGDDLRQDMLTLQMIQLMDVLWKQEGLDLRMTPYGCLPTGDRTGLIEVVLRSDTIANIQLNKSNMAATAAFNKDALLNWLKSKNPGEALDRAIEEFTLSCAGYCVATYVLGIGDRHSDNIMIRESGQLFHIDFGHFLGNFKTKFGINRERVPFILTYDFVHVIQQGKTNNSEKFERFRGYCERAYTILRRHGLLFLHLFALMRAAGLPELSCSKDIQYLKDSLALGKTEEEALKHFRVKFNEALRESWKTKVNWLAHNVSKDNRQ
Sequence of PI3Kδ (p110δ/p85α) Recombinant Human Protein (P27986 whole entry partner): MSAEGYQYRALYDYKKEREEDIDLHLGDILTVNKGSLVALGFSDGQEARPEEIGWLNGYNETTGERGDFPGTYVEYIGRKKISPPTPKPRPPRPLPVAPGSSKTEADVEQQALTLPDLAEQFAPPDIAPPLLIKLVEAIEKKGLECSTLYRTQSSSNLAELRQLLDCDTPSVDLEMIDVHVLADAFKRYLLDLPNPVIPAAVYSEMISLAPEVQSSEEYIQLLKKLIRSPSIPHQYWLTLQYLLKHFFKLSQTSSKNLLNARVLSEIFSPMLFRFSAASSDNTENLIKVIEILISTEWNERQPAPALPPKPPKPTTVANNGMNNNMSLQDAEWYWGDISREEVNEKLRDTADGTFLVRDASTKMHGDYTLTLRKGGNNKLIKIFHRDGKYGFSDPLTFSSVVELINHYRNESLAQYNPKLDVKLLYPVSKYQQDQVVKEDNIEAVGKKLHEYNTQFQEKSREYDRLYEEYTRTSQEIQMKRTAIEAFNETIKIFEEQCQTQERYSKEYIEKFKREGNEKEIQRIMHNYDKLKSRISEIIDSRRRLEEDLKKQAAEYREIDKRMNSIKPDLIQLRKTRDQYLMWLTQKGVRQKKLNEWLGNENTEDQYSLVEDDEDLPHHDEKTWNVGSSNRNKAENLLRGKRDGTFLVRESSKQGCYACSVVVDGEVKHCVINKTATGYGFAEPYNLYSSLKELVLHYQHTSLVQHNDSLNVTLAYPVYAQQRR
Description: Example C. PI3Kδ Scintillation Proximity Assay
[γ-^33P]ATP (10 mCi/mL) and Wheat Germ Agglutinin (WGA) YSi SPA Scintillation Beads was purchased from Perkin-Elmer (Waltham, Mass.). Lipid kinase substrate, D-myo-Phosphatidylinositol 4,5-bisphosphate (PtdIns(4,5)P2)D (+)-sn-1,2-di-O-octanoylglyceryl, 3-O-phospho linked (PIP2), CAS 204858-53-7, was purchased from Echelon Biosciences (Salt Lake City, Utah). PI3Kδ (p110δ/p85α) Recombinant Human Protein was purchased from Eurofins (St Charles, Mo.). ATP, MgCl2, DTT, EDTA, MOPS and CHAPS were purchased from Sigma-Aldrich (St. Louis, Mo.).
as §1, with “PI3Kδ” for “PI3Kγ”, “3.4” for “13”, “PI3Kδ.” for “PI3Kγ.”

Assay [3] relates to Phosphorylated Ribosomal Protein S6 (RPS6) in THP-1 cells. Nature of the assay: THP-1 RPS6 ELISA Assay. It is filed as cell-based. The settings on record: Homo sapiens; serum starved THP-1 cells, 2 hours with compound, 10 nM MCP-1 for 15 minutes, Phospho-RPS6 ELISA; read-out: PI3Kγ_THP1_RPS6_ELISA IC50. The procedure: Example A. THP-1 RPS6 ELISA Assay
To measure the Phosphorylated Ribosomal Protein S6 (RPS6) in cell lysates, THP-1 cells (Human Acute Monocytic Leukemia) are purchased from ATCC (Manassas, Va.) and maintained in RPMI with 10% FBS (Gibco/Life Technologies, Carlsbad, Calif.). For the assay, THP-1 cells are serum starved overnight in RPMI, then plated in RPMI (2×10^5 cells/well in 90 μL) into 96-well flat-bottom tissue culture treated plates (Corning, Corning, N.Y.), in the presence or absence of a concentration range of test compounds. Covered plates are incubated for 2 hours at 37° C., 5% CO2 then treated with or without 10 nM MCP-1 (MYBioSource, San Diego, Calif.) for 15 minutes at 37° C., 5% CO2. Plates are centrifuged at 1600 RPM and supernatants are removed. Cells are lysed in Lysis Buffer (Cell Signaling, Danvers, Mass.) with Protease Inhibitor (Calbiochem/EMD, Germany), PMSF (Sigma, St Louis Mo.), HALTS (Thermo Fisher, Rockford, Ill.) for 30 min on wet ice. Cell lysates are frozen at −80° C. before testing. The lysates are tested in the Human/Mouse/Rat Phospho-RPS6 ELISA (R&D Systems, Inc. Minn, Minn.). The plate is measured using a microplate reader (SpectraMax M5—Molecular Devices, LLC Sunnyvale, Calif.) set to 450 nm with a wavelength correction of 540. IC50 determination is performed by fitting the curve of inhibitor percent inhibition versus the log of the inhibitor concentration using the GraphPad Prism 5.0 software.

Structures can show the parent of a compound that is named as a salt.

Sequence of PI3Kγ (p110γ) Recombinant Human Protein (P48736 whole entry): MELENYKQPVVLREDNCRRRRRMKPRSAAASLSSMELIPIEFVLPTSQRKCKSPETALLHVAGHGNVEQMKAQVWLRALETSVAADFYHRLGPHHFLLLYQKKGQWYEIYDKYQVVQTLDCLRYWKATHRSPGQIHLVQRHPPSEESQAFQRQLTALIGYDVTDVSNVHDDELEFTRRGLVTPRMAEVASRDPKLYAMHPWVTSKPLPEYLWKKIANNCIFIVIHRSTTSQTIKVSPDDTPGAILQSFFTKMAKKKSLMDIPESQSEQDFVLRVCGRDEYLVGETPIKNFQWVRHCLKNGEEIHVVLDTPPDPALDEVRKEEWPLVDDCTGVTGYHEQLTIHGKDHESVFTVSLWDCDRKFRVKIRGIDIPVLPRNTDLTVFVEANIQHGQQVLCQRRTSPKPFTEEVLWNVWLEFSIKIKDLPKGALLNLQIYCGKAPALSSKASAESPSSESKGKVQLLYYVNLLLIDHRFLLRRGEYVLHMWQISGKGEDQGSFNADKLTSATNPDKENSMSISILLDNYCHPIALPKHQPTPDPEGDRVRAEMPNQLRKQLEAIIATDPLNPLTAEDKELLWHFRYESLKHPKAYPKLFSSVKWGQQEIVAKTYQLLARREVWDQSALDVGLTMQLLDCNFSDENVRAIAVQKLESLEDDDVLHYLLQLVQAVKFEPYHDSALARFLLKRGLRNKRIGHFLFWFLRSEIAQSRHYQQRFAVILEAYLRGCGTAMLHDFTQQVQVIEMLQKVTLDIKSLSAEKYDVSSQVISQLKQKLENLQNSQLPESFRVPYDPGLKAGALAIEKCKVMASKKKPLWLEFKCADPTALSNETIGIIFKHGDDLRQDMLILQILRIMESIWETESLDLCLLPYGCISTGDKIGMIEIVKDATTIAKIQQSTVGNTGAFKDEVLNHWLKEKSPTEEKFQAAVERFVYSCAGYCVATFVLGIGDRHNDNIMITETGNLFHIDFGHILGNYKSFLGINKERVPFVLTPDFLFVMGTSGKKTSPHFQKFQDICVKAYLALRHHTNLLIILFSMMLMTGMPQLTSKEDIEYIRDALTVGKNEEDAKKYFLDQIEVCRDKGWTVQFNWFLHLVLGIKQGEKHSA

By IC50 is commonly meant the concentration that gives 50% inhibition. Turning to `[2H]C([2H])([2H])c1ccc(S(=O)(=O)NC23CCC(C#N)(C2)C3)cc1-c1cnc(N)c(-c2cnco2)n1` [Example 69, 3-(5-Amino-6-(oxazol-5-yl)pyrazin-2-yl)-N-(4-cyanobicyclo[2.1.1]hexan-1-yl)-4-(methyl-d3)benzenesulfonamide trifluoroacetate salt], the IC50 in assay [1], in assay [2] and in assay [3] was at most 100 nM in each case.
As for `Cc1ccc(S(=O)(=O)NC23CC(C(=O)N4CCC4)(C2)C3)cc1-c1cnc(N)c(-n2cncn2)n1` [Example 34, 3-(5-Amino-6-(1H-1,2,4-triazol-1-yl)pyrazin-2-yl)-N-(3-(azetidine-1-carbonyl)bicyclo[1.1.1]pentan-1-yl)-4-methylbenzenesulfonamide trifluoroacetate salt], the results for the IC50 in assay [1], in assay [2] and in assay [3] were at most 100 nM, at most 500 nM and at least 1000 nM, respectively.
Turning to `Cc1ncc(-c2nc(-c3cc(S(=O)(=O)NC45CC(C#N)(C4)C5)ccc3C)cnc2N)s1` [Example 1, 3-(5-Amino-6-(2-methylthiazol-5-yl)pyrazin-2-yl)-N-(3-cyanobicyclo[1.1.1]pentan-1-yl)-4-methylbenzenesulfonamide Trifluoroacetate Salt], the IC50 in assay [1], in assay [2] and in assay [3] was at most 100 nM in each case.
For `[2H]C([2H])([2H])c1ccc(S(=O)(=O)NC23CCC(O)(CC2)C3)cc1-c1cnc(N)c(-n2cncn2)n1` [Example 47, 3-(5-Amino-6-(1H-1,2,4-triazol-1-yl)pyrazin-2-yl)-N-(4-hydroxybicyclo[2.2.1]heptan-1-yl)-4-(methyl-d3)benzenesulfonamide Trifluoroacetate Salt], the IC50 in assay [1], in assay [2] and in assay [3] was at most 100 nM throughout.
As for `Cc1ncc(-c2nc(-c3cc(S(=O)(=O)NC45COC(CO)(C4)C5)ccc3C)cnc2N)s1` [Example 4, 3-(5-Amino-6-(2-methylthiazol-5-yl)pyrazin-2-yl)-N-(1-(hydroxymethyl)-2-oxabicyclo[2.1.1]hexan-4-yl)-4-methylbenzenesulfonamide trifluoroacetate salt], the IC50 in assay [1], in assay [2] and in assay [3] was at most 100 nM throughout.
As to `[2H]C([2H])([2H])c1ccc(S(=O)(=O)NC23CCN(CC2)C3)cc1-c1cnc(N)c(-c2ncn(C([2H])([2H])[2H])n2)n1` [Example 92, 3-(5-amino-6-(1-(methyl-d3)-1H-1,2,4-triazol-3-yl)pyrazin-2-yl)-N-(1-azabicyclo[2.2.1]heptan-4-yl)-4-(methyl-d3)benzenesulfonamide], the concentration for half-maximal inhibition (IC50) is at most 100 nM in assay [1], at most 100 nM in assay [2] and at most 500 nM in assay [3].
For `Cc1ccc(S(=O)(=O)NC23CCC(O)(C2)C3)cc1-c1cnc(N)c(-n2cncn2)n1` [Example 30, 3-(5-Amino-6-(1H-1,2,4-triazol-1-yl)pyrazin-2-yl)-N-(4-hydroxybicyclo[2.1.1]hexan-1-yl)-4-methylbenzenesulfonamide Trifluoroacetate Salt], the half-maximal inhibitory concentration (IC50) in assay [1] is at most 100 nM; in assay [2] it was at most 500 nM; in assay [3], at most 500 nM.
As to `Cc1ccc(S(=O)(=O)NC23CC(CO)(C2)C3)cc1-c1cnc(N)c(-c2cn(C)nc2C)n1` [Example 15, 3-(5-amino-6-(1,3-dimethyl-1H-pyrazol-4-yl)pyrazin-2-yl)-N-(3-(hydroxymethyl)bicyclo[1.1.1]pentan-1-yl)-4-methylbenzenesulfonamide trifluoroacetate salt], the IC50 in assay [1] was at most 100 nM; in assay [2] it was at most 500 nM; in assay [3] it was at most 500 nM.
Consider `[2H]C([2H])([2H])c1ccc(S(=O)(=O)NC23CCC(C#N)(C2)C3)cc1-c1cnc(N)c(-c2ncco2)n1` [Example 71, 3-(5-Amino-6-(oxazol-2-yl)pyrazin-2-yl)-N-(4-cyanobicyclo[2.1.1]hexan-1-yl)-4-(methyl-d3)benzenesulfonamide trifluoroacetate salt], for which the IC50 in assay [1] was at most 100 nM; in assay [2], at most 500 nM; in assay [3] it was at most 500 nM.
For the compound `CCOC(=O)NC12CC(NS(=O)(=O)c3ccc(C)c(-c4cnc(N)c(-n5cncn5)n4)c3)(C1)C2` [Example 39, Ethyl 3-(3-(5-amino-6-(1H-1,2,4-triazol-1-yl)pyrazin-2-yl)-4-methylphenylsulfonamido)bicyclo[1.1.1]pentan-1-ylcarbamate Trifluoroacetate Salt], the IC50 was at most 100 nM in assay [1], at most 500 nM in assay [2] and at most 500 nM in assay [3].
As to `Cc1ccc(S(=O)(=O)NC23CC(C#N)(C2)C3)cc1-c1cnc(N)c(-n2nccn2)n1` [Example 41, 3-(5-Amino-6-(2H-1,2,3-triazol-2-yl)pyrazin-2-yl)-N-(3-cyanobicyclo[1.1.1]pentan-1-yl)-4-methylbenzenesulfonamide Trifluoroacetate Salt], the half-inhibitory concentration (IC50) in assay [1], in assay [2] and in assay [3] was at most 100 nM each time.
`Cc1ccc(S(=O)(=O)NC23CCC(O)(CC2)C3)cc1-c1cnc(N)c(-c2ccncc2)n1` [Example 17, 3-(5-Amino-6-(pyridin-4-yl)pyrazin-2-yl)-N-(4-hydroxybicyclo[2.2.1]heptan-1-yl)-4-methylbenzenesulfonamide Trifluoroacetate Salt]: the IC50 was at most 100 nM in assay [1], at most 500 nM in assay [2] and at most 500 nM in assay [3].
In the case of `[2H]C([2H])([2H])c1ccc(S(=O)(=O)NC23CC(C#N)(C2)C3)cc1-c1cnc(N)c(-c2ccncn2)n1` [Example 79, 3-(5-Amino-6-(pyrimidin-4-yl)pyrazin-2-yl)-N-(3-cyanobicyclo[1.1.1]pentan-1-yl)-4-(methyl-d3)benzenesulfonamide Trifluoroacetate Salt], the IC50 in assay [1], in assay [2] and in assay [3] was at most 100 nM in each case.
